Test results as given in ChEMBL document CHEMBL1128690, “Design of potent non-thiourea H3-receptor histamine antagonists” (J Med Chem, 1995).
pKi: −log10 of the molar value.

What follows are molecules tested against T1, Histamine H3 receptor (Rattus norvegicus, UniProt Q9QYN8) (assay: In vitro antagonism of the histamine H3-receptor in the rat cerebral cortex.).
T1 sequence (Q9QYN8 whole entry): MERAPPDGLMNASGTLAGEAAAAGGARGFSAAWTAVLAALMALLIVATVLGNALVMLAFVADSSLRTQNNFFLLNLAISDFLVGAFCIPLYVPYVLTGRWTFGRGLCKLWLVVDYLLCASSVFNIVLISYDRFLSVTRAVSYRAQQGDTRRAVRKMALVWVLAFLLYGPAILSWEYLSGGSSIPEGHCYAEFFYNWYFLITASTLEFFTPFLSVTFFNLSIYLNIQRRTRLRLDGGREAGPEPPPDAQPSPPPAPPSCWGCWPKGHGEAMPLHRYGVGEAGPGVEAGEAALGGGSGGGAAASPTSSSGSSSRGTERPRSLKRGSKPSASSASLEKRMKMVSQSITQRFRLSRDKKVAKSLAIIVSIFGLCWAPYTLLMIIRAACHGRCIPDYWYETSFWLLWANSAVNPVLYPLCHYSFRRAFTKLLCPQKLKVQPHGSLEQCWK
Format: functional, tissue-based
With `Clc1cc(NCCc2cnc[nH]2)ccn1` the pKi was 6.80. For `COC(=O)c1ccc(NCCc2cnc[nH]2)nc1`, the pKi was 7.38. `O=[N+]([O-])c1ccc(NCCc2ccccn2)nc1` showed a pKi of ~6.00. In the case of `O=[N+]([O-])c1ccc(NCCCc2c[nH]cn2)nc1`, the pKi was 6.77. Work on `O=[N+]([O-])c1ccc(SCc2c[nH]cn2)nc1` yielded a pKi of ~6.22. Molecule `c1ccc(SCCc2cnc[nH]2)nc1` has a pKi of 7.04. For `S=C(NCCSCc1c[nH]cn1)NC1CCCCC1`, the pKi was ~6.30. With `FC(F)(F)c1ccc(N2CCC(c3cnc[nH]3)CC2)nc1` the pKi was 7.38. In the case of `FC(F)(F)c1ccc(NCCc2cnc[nH]2)nc1`, the pKi was 7.77. `c1ccc(CCNc2ncccn2)nc1` was tested, and the pKi was < 5.00. `c1cnc(NCCc2c[nH]cn2)cn1` was tested, and the pKi was 6.70. With `O=[N+]([O-])c1cc[n+]([O-])c(NCCc2c[nH]cn2)c1` the pKi was 7.28. With `c1ccc(NCCc2c[nH]cn2)nc1` the pKi was 6.70. In the case of `O=[N+]([O-])c1cccnc1NCCc1c[nH]cn1`, the pKi was 6.62. Work on `c1c[nH]c(SCCc2cnc[nH]2)n1` yielded a pKi of 6.40. In the case of `c1csc(NCCc2cnc[nH]2)n1`, the pKi was 6.47. In the case of `O=[N+]([O-])c1ccc(NCCc2c[nH]cn2)nc1`, the pKi was 7.54. `S=C(NCCc1c[nH]cn1)NC1CCCCC1` showed a pKi of ~6.70. Molecule `S=C(NCCCc1cnc[nH]1)NC1CCCCC1` has a pKi of 7.89. In the case of `CNC(=S)NCCCCc1cnc[nH]1` [BURIMAMIDE], the pKi was 7.15. With `S=C(NC1CCCCC1)N1CCC(c2cnc[nH]2)CC1` [THIOPERAMIDE] the pKi was 8.37.

Each molecule was assayed against T1, Histamine H3 receptor (assay: The compound was tested in vitro for antagonistic activity against H3-receptor in the rat cerebral cortex; Not active (tested up to 1000 nM)).
Format: functional, tissue-based
For `S=C(NCCCn1ccnc1)NC1CCCCC1`, the Ki was “Not Active”.
